Data from ChEMBL document CHEMBL1201862, “PubChem BioAssay data set” (2004).
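Step 1: Grow cells in 96-well plates. Step 2: Expose to compound for 48 hours at 5 concentrations. Step 3: Interpolate endpoints linearly; if unreached, use highest concentration. Here, GI50 denotes the concentration required for 50% inhibition of growth.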 Activity calls are given as the source filed them. No stated cut-off is given here; in the data, active = GI50 up to about 1.1 µM and inactive = higher.

Key:
Assay in all cases: NCI tumour cell line growth inhibition, 48 h
EKVX = tested on: EKVX
SF-295 = tested on: SF-295
SR = tested on: SR
SNB-19 = tested on: SNB-19
M19-MEL = tested on: M19-MEL
Malme-3M = tested on: Malme-3M
NCI-H522 = tested on: NCI-H522
UACC-257 = tested on: UACC-257
OVCAR-8 = tested on: OVCAR-8
RPMI-8226 = tested on: RPMI-8226
SK-MEL-5 = tested on: SK-MEL-5
M14 = tested on: M14
SF-539 = tested on: SF-539
RXF 393 = tested on: RXF 393
U-251 = tested on: U-251
HCC 2998 = tested on: HCC 2998
IGROV-1 = tested on: IGROV-1
A549 = tested on: A549
UO-31 = tested on: UO-31
DMS-114 = tested on: DMS-114
UACC-62 = tested on: UACC-62
KM-20L2 = tested on: KM-20L2
SF-268 = tested on: SF-268
XF498 = tested on: XF498
OVCAR-3 = tested on: OVCAR-3
HOP-62 = tested on: HOP-62
NCI-H23 = tested on: NCI-H23
SN12C = tested on: SN12C
NCI-H226 = tested on: NCI-H226
TK-10 = tested on: TK-10
KM12 = tested on: KM12
NCI-H460 = tested on: NCI-H460
SW-620 = tested on: SW-620
ACHN = tested on: ACHN
786-0 = tested on: 786-0
COLO 205 = tested on: COLO 205
DMS-273 = tested on: DMS-273
HT-29 = tested on: HT-29
HCT-15 = tested on: HCT-15
HCT-116 = tested on: HCT-116
LXFL 529 = tested on: LXFL 529
SK-OV-3 = tested on: SK-OV-3
LOX IMVI = tested on: LOX IMVI
HL-60 = tested on: HL-60
SK-MEL-28 = tested on: SK-MEL-28
CCRF-CEM = tested on: CCRF-CEM
K562 = tested on: K562
MOLT-4 = tested on: MOLT-4
SK-MEL-2 = tested on: SK-MEL-2
SNB-78 = tested on: SNB-78
A498 = tested on: A498
SNB-75 = tested on: SNB-75
CAKI-1 = tested on: CAKI-1
OVCAR-5 = tested on: OVCAR-5
OVCAR-4 = tested on: OVCAR-4

CC12N=NN(c3ccc([N+](=O)[O-])cc3)C1(O)c1ccccc1C2=O (stereo unspecified)
GI50 (EKVX): > 100 µM (inactive)
GI50 (SF-295): > 100 µM (inactive)
GI50 (SR): > 100 µM (inactive)
GI50 (SNB-19): > 100 µM (inactive)
GI50 (M19-MEL): > 100 µM (inactive)
GI50 (Malme-3M): > 100 µM (inactive)
GI50 (NCI-H522): > 100 µM (inactive)
GI50 (UACC-257): > 100 µM (inactive)
GI50 (OVCAR-8): > 100 µM (inactive)
GI50 (RPMI-8226): > 100 µM (inactive)
GI50 (SK-MEL-5): > 100 µM (inactive)
GI50 (M14): > 100 µM (inactive)
GI50 (SF-539): 70.1 µM (inactive)
GI50 (RXF 393): > 100 µM (inactive)
GI50 (U-251): > 100 µM (inactive)
GI50 (HCC 2998): > 100 µM (inactive)
GI50 (IGROV-1): > 100 µM (inactive)
GI50 (A549): > 100 µM (inactive)
GI50 (UO-31): > 100 µM (inactive)
GI50 (DMS-114): > 100 µM (inactive)
GI50 (UACC-62): > 100 µM (inactive)
GI50 (KM-20L2): > 100 µM (inactive)
GI50 (SF-268): > 100 µM (inactive)
GI50 (XF498): > 100 µM (inactive)
GI50 (OVCAR-3): > 100 µM (inactive)
GI50 (HOP-62): > 100 µM (inactive)
GI50 (NCI-H23): > 100 µM (inactive)
GI50 (SN12C): > 100 µM (inactive)
GI50 (NCI-H226): > 100 µM (inactive)
GI50 (TK-10): > 100 µM (inactive)
GI50 (KM12): > 100 µM (inactive)
GI50 (NCI-H460): > 100 µM (inactive)
GI50 (SW-620): > 100 µM (inactive)
GI50 (ACHN): 48.5 µM (inactive)
GI50 (786-0): > 100 µM (inactive)
GI50 (COLO 205): > 100 µM (inactive)
GI50 (DMS-273): > 100 µM (inactive)
GI50 (HT-29): > 100 µM (inactive)
GI50 (HCT-15): > 100 µM
GI50 (HCT-116): > 100 µM (inactive)
GI50 (LXFL 529): > 100 µM (inactive)
GI50 (SK-OV-3): > 100 µM (inactive)
GI50 (LOX IMVI): > 100 µM (inactive)
GI50 (HL-60): > 100 µM (inactive)

COC(=O)C(CCC#N)(CCC#N)C(=O)OC
GI50 (EKVX): > 100 µM (inactive)
GI50 (SF-295): > 100 µM (inactive)
GI50 (SR): > 100 µM (inactive)
GI50 (SNB-19): > 100 µM (inactive)
GI50 (M19-MEL): > 100 µM (inactive)
GI50 (Malme-3M): > 100 µM (inactive)
GI50 (NCI-H522): > 100 µM (inactive)
GI50 (UACC-257): > 100 µM (inactive)
GI50 (OVCAR-8): > 100 µM (inactive)
GI50 (RPMI-8226): > 100 µM (inactive)
GI50 (SK-MEL-5): > 100 µM (inactive)
GI50 (M14): > 100 µM (inactive)
GI50 (SF-539): > 100 µM (inactive)
GI50 (SK-MEL-28): > 100 µM (inactive)
GI50 (U-251): > 100 µM (inactive)
GI50 (HCC 2998): > 100 µM (inactive)
GI50 (IGROV-1): > 100 µM (inactive)
GI50 (CCRF-CEM): > 100 µM (inactive)
GI50 (A549): > 100 µM (inactive)
GI50 (UO-31): > 100 µM (inactive)
GI50 (DMS-114): > 100 µM (inactive)
GI50 (UACC-62): > 100 µM (inactive)
GI50 (KM-20L2): > 100 µM (inactive)
GI50 (SF-268): > 100 µM (inactive)
GI50 (XF498): > 100 µM (inactive)
GI50 (OVCAR-3): > 100 µM (inactive)
GI50 (HOP-62): > 100 µM (inactive)
GI50 (NCI-H23): > 100 µM (inactive)
GI50 (K562): > 100 µM (inactive)
GI50 (SN12C): > 100 µM (inactive)
GI50 (MOLT-4): > 100 µM (inactive)
GI50 (NCI-H226): > 100 µM (inactive)
GI50 (KM12): > 100 µM (inactive)
GI50 (NCI-H460): > 100 µM (inactive)
GI50 (SW-620): > 100 µM (inactive)
GI50 (ACHN): > 100 µM (inactive)
GI50 (786-0): > 100 µM (inactive)
GI50 (COLO 205): > 100 µM (inactive)
GI50 (DMS-273): > 100 µM (inactive)
GI50 (HT-29): > 100 µM (inactive)
GI50 (HCT-15): > 100 µM
GI50 (HCT-116): > 100 µM (inactive)
GI50 (LXFL 529): > 100 µM (inactive)
GI50 (SK-OV-3): > 100 µM (inactive)
GI50 (LOX IMVI): > 100 µM (inactive)
GI50 (HL-60): > 100 µM (inactive)

FC(F)(F)c1cccc(/C=N/C23CC4CC(CC(C4)C2)C3)c1
GI50 (EKVX): > 100 µM (inactive)
GI50 (SF-295): > 100 µM (inactive)
GI50 (SR): > 100 µM (inactive)
GI50 (SNB-19): > 100 µM (inactive)
GI50 (M19-MEL): 27.5 µM (inactive)
GI50 (Malme-3M): > 100 µM (inactive)
GI50 (UACC-257): > 100 µM (inactive)
GI50 (OVCAR-8): > 100 µM (inactive)
GI50 (SK-MEL-2): > 100 µM (inactive)
GI50 (SNB-78): > 100 µM (inactive)
GI50 (RPMI-8226): > 100 µM (inactive)
GI50 (SK-MEL-5): > 100 µM (inactive)
GI50 (M14): > 100 µM (inactive)
GI50 (SF-539): > 100 µM (inactive)
GI50 (A498): > 100 µM (inactive)
GI50 (RXF 393): > 100 µM (inactive)
GI50 (SK-MEL-28): > 100 µM (inactive)
GI50 (SNB-75): 51.9 µM (inactive)
GI50 (U-251): > 100 µM (inactive)
GI50 (HCC 2998): > 100 µM (inactive)
GI50 (IGROV-1): > 100 µM (inactive)
GI50 (A549): > 100 µM (inactive)
GI50 (UO-31): > 100 µM (inactive)
GI50 (DMS-114): > 100 µM (inactive)
GI50 (CAKI-1): > 100 µM (inactive)
GI50 (KM-20L2): > 100 µM (inactive)
GI50 (OVCAR-5): > 100 µM (inactive)
GI50 (SF-268): > 100 µM (inactive)
GI50 (XF498): > 100 µM (inactive)
GI50 (OVCAR-3): > 100 µM (inactive)
GI50 (HOP-62): > 100 µM (inactive)
GI50 (NCI-H23): > 100 µM (inactive)
GI50 (K562): > 100 µM (inactive)
GI50 (SN12C): > 100 µM (inactive)
GI50 (MOLT-4): > 100 µM (inactive)
GI50 (NCI-H226): > 100 µM (inactive)
GI50 (TK-10): > 100 µM (inactive)
GI50 (KM12): > 100 µM (inactive)
GI50 (NCI-H460): > 100 µM (inactive)
GI50 (SW-620): > 100 µM (inactive)
GI50 (ACHN): > 100 µM (inactive)
GI50 (786-0): > 100 µM (inactive)
GI50 (COLO 205): > 100 µM (inactive)
GI50 (DMS-273): > 100 µM (inactive)
GI50 (HT-29): > 100 µM (inactive)
GI50 (HCT-15): > 100 µM
GI50 (HCT-116): > 100 µM (inactive)
GI50 (SK-OV-3): > 100 µM (inactive)
GI50 (OVCAR-4): > 100 µM (inactive)
GI50 (LOX IMVI): > 100 µM (inactive)
GI50 (HL-60): > 100 µM (inactive)
